# Test results from PubChem BioAssay (NCI).
# Where “and” joins values, the source holds several entries; their conditions need not be identical. Equal entries are not always repeated.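 Dose response: 5 concentrations. Exposure: 48 h. Format: 96-well plates. Endpoint: linear interpolation; highest concentration if not reached. The concentration for 50% growth inhibition is given as GI50. At the TGI there is no net growth.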
# Experiments:
# Experiment in all cases: NCI-60 cell line screen, 48 h
# HL-60(TB) leukemia = test system: HL-60(TB) leukemia
# IGROV1 ovarian = test system: IGROV1 ovarian
# M14 melanoma = test system: M14 melanoma
# MOLT-4 leukemia = test system: MOLT-4 leukemia
# OVCAR-8 ovarian = test system: OVCAR-8 ovarian
# SK-MEL-28 melanoma = test system: SK-MEL-28 melanoma
# SNB-19 CNS = test system: SNB-19 CNS
# TK-10 renal = test system: TK-10 renal
# U251 CNS = test system: U251 CNS
# MCF7 breast = test system: MCF7 breast
Structure (SMILES),TGI (HL-60(TB) leukemia),TGI (IGROV1 ovarian),TGI (M14 melanoma),TGI (MOLT-4 leukemia),TGI (OVCAR-8 ovarian),TGI (SK-MEL-28 melanoma),TGI (SNB-19 CNS),TGI (TK-10 renal),TGI (U251 CNS),GI50 (IGROV1 ovarian),GI50 (M14 melanoma),GI50 (MCF7 breast),TGI (MCF7 breast),GI50 (MOLT-4 leukemia),GI50 (OVCAR-8 ovarian),GI50 (SK-MEL-28 melanoma),GI50 (SNB-19 CNS),GI50 (TK-10 renal),GI50 (U251 CNS),GI50 (HL-60(TB) leukemia)
O=S(=O)(/C=C/c1ccc(F)cc1)Cc1ccc(CS(=O)(=O)/C=C/c2ccc(F)cc2)cc1,> 100 µM,> 100 µM,> 100 µM,> 100 µM,> 100 µM,> 100 µM,> 100 µM,> 100 µM,> 100 µM,,,,,,,,,,,
C=C1CC2OC(=O)C(=C)C2C(O)C2C(=C)CCC12 (stereo not drawn),6.32 µM,35.5 µM,,11 µM,18 µM,21 µM,30.8 µM,28 µM,30.8 µM,,,,,,,,,,,
COc1ccc2c(c1)C(=O)c1ccc(OC)cc1C2=S,> 100 µM,> 100 µM,> 100 µM,> 100 µM,> 100 µM,> 100 µM,> 100 µM,> 100 µM,61.7 µM,,,,,,,,,,,
NNC(=O)C1CCC(=O)N1S(=O)(=O)c1ccccc1 (stereo not drawn),> 100 µM,> 100 µM,> 100 µM,> 100 µM,> 100 µM,> 100 µM,> 100 µM,> 100 µM,> 100 µM,,,,,,,,,,,
O=C1C(c2ccccc2)=C(O)c2cccc3cccc1c23,> 100 µM,> 100 µM,> 100 µM,> 100 µM,> 100 µM,> 100 µM,> 100 µM,> 100 µM,> 100 µM,,,,,,,,,,,
O=C1C(Nc2ccc(Cl)cc2)=C(I)C(=O)c2ncccc21,,1.41 µM,2.26 µM,9.32 µM,3.12 µM,3.02 µM,3.23 µM,2.94 µM,2.8 µM,0.359 µM,0.828 µM,0.289 µM,1.16 µM,0.964 µM,1.51 µM,1.64 µM,1.61 µM,1.59 µM,1.48 µM,
O=C1CCCCC1S(=O)(=O)c1ccccc1 (stereo not drawn),> 100 µM,> 100 µM,> 100 µM,> 100 µM,> 100 µM,> 100 µM,> 100 µM,> 100 µM,> 100 µM,,,,,,,,,,,
COc1cc(OC)c(C/C=C/c2ccccc2)cc1O,52.2 µM,29.9 µM,38 µM,40.5 µM,32.8 µM,30.4 µM,29.3 µM,29.9 µM,30.4 µM,,,,,,,,,,,
OC(CCNC12CC3CC(CC(C3)C1)C2)c1ccccc1 (stereo not drawn),> 100 µM,> 100 µM,> 100 µM,> 100 µM,> 100 µM,> 100 µM,> 100 µM,> 100 µM,> 100 µM,,,,,,,,,,,
CC(=O)[CH-]C(=O)c1ccccc1.CC(=O)[CH-]C(=O)c1ccccc1.CC[O-].CC[O-].[Hf+4],> 100 µM,> 100 µM,> 100 µM,> 100 µM,> 100 µM,> 100 µM,> 100 µM,,> 100 µM,> 100 µM,> 100 µM,,,> 100 µM,> 100 µM,> 100 µM,> 100 µM,,> 100 µM,> 100 µM
COc1ccc(/C=C/c2cc(OC)c(OC)c(OC)c2)cc1,,> 100 µM,> 100 µM,> 100 µM,> 100 µM,96.8 µM,> 100 µM,> 100 µM,11.7 µM,,,,,,,,,,,
CC[C@@]1(O)C(=O)OCc2c1cc1n(c2=O)Cc2cc3cc4c(cc3nc2-1)OCO4,,0.187 µM,,0.00137 µM,0.369 µM,,,2.79 µM and 17.3 µM,0.0171 µM and 0.0613 µM,< 0.0341 µM,,,,,,0.0971 µM,,0.111 µM,,
NC(=O)CN(CC(N)=O)C(N)=O,> 100 µM,> 100 µM,> 100 µM,> 100 µM,> 100 µM,> 100 µM,> 100 µM,> 100 µM,> 100 µM,,,,,,,,,,,
O=C(O)CC[C@H](NC(=O)c1ccc(-n2nc3ccc(O)cc3nc2=O)cc1)C(=O)O,> 100 µM,> 100 µM,> 100 µM,> 100 µM,> 100 µM,> 100 µM,> 100 µM,> 100 µM,> 100 µM,,,,,,,,,,,
COc1c(O)c2c3c(cc(C)cc3c1C(C)C)OC2,> 100 µM,> 100 µM,> 100 µM,> 100 µM,> 100 µM,> 100 µM,> 100 µM,> 100 µM,> 100 µM,,,,,,,,,,,
O=C1C=CC(=O)C2=C1[C@@H](O)C1CC=CC3C(=O)O[C@@H]2C31 (stereo partly drawn),40.4 µM,22.6 µM,36 µM,56.5 µM,> 71.3 µM,> 62.3 µM,> 100 µM,> 58.1 µM,> 100 µM,,,,,,,,,,,
COc1cc2ccnc3c2c(c1OC)-c1coc(SC)c1-3,> 100 µM,> 100 µM,> 100 µM,> 100 µM,> 100 µM,,> 100 µM,> 100 µM,> 100 µM,,,,,,,,,,,
C=C1C(O)C2C(=C(CC)C13CC3)C(=O)C(C)(C)C2OC (stereo not drawn),,> 100 µM,> 100 µM,> 100 µM,> 100 µM,> 100 µM,> 100 µM,> 100 µM,> 100 µM,23.8 µM,59.4 µM,42.4 µM,> 100 µM,27.3 µM,53.1 µM,> 100 µM,> 100 µM,> 100 µM,48.4 µM,
Cc1nc(Nc2ccccc2)sc1C(=O)CC(=O)C(=O)Nc1c(C(C)C)cccc1C(C)C,> 100 µM,> 100 µM,> 100 µM,> 100 µM,> 100 µM,> 100 µM,> 100 µM,> 100 µM,> 100 µM,,,,,,,,,,,
CCOc1cc2c(C(=O)CC)c(O)ccc2o1,23 µM,> 100 µM,> 100 µM,> 100 µM,> 100 µM,> 58.4 µM,> 100 µM,> 100 µM,> 100 µM,,,,,,,,,,,
CCOC(C[C@H](O[Si](C)(C)C(C)(C)C)[C@H]1COC(=S)S1)OCC,> 100 µM,,> 100 µM,> 100 µM,> 100 µM,> 100 µM,> 100 µM,> 100 µM,> 100 µM,,,,,,,,,,,
CCCCCCC[CH2][Sn]([CH2]CCCCCCC)([O]c1cccc2cccnc12)[O]c1cccc2cccnc12,,5.26 µM,3.17 µM,3.81 µM,10.4 µM,,9.31 µM,13.7 µM,3.25 µM,2.19 µM,1.33 µM,,,0.595 µM,2.39 µM,,2.94 µM,3.85 µM,1.72 µM,
